In patent US11371097B2, “Articles for diagnosis of liver fibrosis” (THE GOVERNMENT OF THE UNITED STATES, as represented by THE …, priority 2015, dated 2022):
Several values for one entry are separate records, joined by “and”; a condition that tells them apart may be missing. Equal entries are not always repeated. Where two headings read alike, the source gives them in different places.

Legend:
liver = type: in vivo, Male Sprague-Dawley rats; details: for Centrilobular collagenous accumulation (Masson's trichrome): 200 mg/kg/day, five-day oral administration
Experimental: All chemical compounds were diluted in corn oil (CAS No. 8001-30-7) (MP Biomedicals, LLC (Solon, Ohio)). The dose volume was 5 mL/kg. Doses were selected based on doses published in the DrugMatrix database, the National Toxicology Program reports, and ATSDR reports.
In vivo rat experiments were performed at Integrated Laboratory Systems (ILS, Research Triangle Park, NC). ILS's Institutional Animal Care and Use Committee approved all experimental procedures. Research was conducted in compliance with the Animal Welfare Act, and other Federal statutes and regulations relating to animals and experiments involving animals and adheres to principles stated in the “Guide for Care and Use of Laboratory Animals” as prepared by the Committee on Care and Use of Laboratory Animals of the Institute of Laboratory Animal Resources, National Research Council in facilities that are fully accredited by the Association for Assessment and Accreditation of Laboratory Animal Care, International. Male Sprague-Dawley rats (CD IGS [CRL:CD (SD)]) were purchased from Charles River Laboratories (Stone Ridge, N.Y.). Rats weighing 215-245 g (8 weeks old) were used. Briefly, rats were housed two per cage with a rat tunnel enrichment device (Bio-Serve, Frenchtown, N.J.). Rats were fed a Purina Rodent Diet No. 5002 (Ralston Purina Co., St. Louis, Mo.), supplied ad libitum. Animals received reverse osmosis-treated tap water (City of Durham, N.C.) ad libitum, which was changed at least once weekly. Controls in the animal rooms were set to maintain temperatures between 20-In vivo rat experiments were performed at Integrated Laboratory Systems (ILS, Research Triangle Park, NC). ILS's Institutional Animal Care and Use Committee approved all experimental procedures. Research was conducted in compliance with the Animal Welfare Act, and other Federal statutes and regulations relating to animals and experiments involving animals and adheres to principles stated in the “Guide for Care and Use of Laboratory Animals” as prepared by the Committee on Care and Use of Laboratory Animals of the Institute of Laboratory Animal Resources, National Research Council in facilities that are fully accredited by the Association for Assessment and Accreditation of Laboratory Animal Care, International. Male Sprague-Dawley rats (CD IGS [CRL:CD (SD)]) were purchased from Charles River Laboratories (Stone Ridge, N.Y.). Rats weighing 215-245 g (8 weeks old) were used. Briefly, rats were housed two per cage with a rat tunnel enrichment device (Bio-Serve, Frenchtown, N.J.). Rats were fed a Purina Rodent Diet No. 5002 (Ralston Purina Co., St. Louis, Mo.), supplied ad libitum. Animals received reverse osmosis-treated tap water (City of Durham, N.C.) ad libitum, which was changed at least once weekly. Controls in the animal rooms were set to maintain temperatures between 20-25° C. with a relative humidity of 30-70% and a 12-hour light/12-hour dark cycle, lights on at 6:00 AM. Clinically healthy animals were assigned to dose groups using a procedure that stratifies animals across groups by body weight such that mean body weight of each group was not statistically different from any other group using analysis of variance (Statistical Analysis System version 9.2, SAS Institute, Cary, N.C.). Animals were dosed by oral gavage for five consecutive days (+10 minutes from the previous day's dose administration time). Volume was based upon daily body weight.
Animals were observed cageside one hour following daily dose administration, then 1-2 times per day during dosing regimens. Body weights were measured daily prior to dose administration, and prior to euthanasia. Twenty-four hours after the final dose administration, animals were anesthetized with isoflurane then euthanized by exsanguination followed by decapitation. Livers were harvested at necropsy and weighed to within 0.1 g. One half of the left lobe of the liver was fixed in 10% formalin. […]

[1] = test system: 67 genes on the fibrosis gene panel; assay: Multiplexed fibrosis gene panel (QuantiGene 2.0 Plex / Bioplex) on liver RNA
[2] = Carbon Tetrachloride 200 mg/kg, animal 54
[3] = histopathology score, individual animals, Carbon Tetrachloride 200, Bromobenzene 785, Dexamethasone 1 mg/kg
[4] = liver RNA, individual animals, Carbon Tetrachloride 200, Bromobenzene 785, Dexamethasone 1 mg/kg
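Wherever Cytoplasmic Alteration is given: Severity grades from None 0% through Minimal Mild Moderate to Marked over 80% tissue affected.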
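Wherever Inflammation is given: Severity grades from None 0% through Minimal Mild Moderate to Marked over 80% tissue affected.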
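Wherever Vacuolation is given: Severity grades from None 0% through Minimal Mild Moderate to Marked over 80% tissue affected.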

## ClC(Cl)(Cl)Cl [carbon tetrachloride]
liver
  Centrilobular collagenous accumulation (Masson's trichrome): pre-fibrogenic lesions in centrilobular region
liver; listed as Carbon tetrachloride
  Centrilobular collagenous accumulation (Masson's trichrome): caused prefibrotic centrilobular collagenous accumulation
liver; [2]
  Bile Duct Hyperplasia and Fibroplasia: 0
  Cytoplasmic Alteration: 0
  Inflammation: 0
  Necrosis: 1
  Vacuolation: 3
liver; across dose groups, five days (figure legend)
  Combined histopathological scores as percent of animals with pathology: dose-dependent increase in severe pathology
liver; exposures on the gene panel (FIG. 9 legend)
  Histopathological evidence of vacuolation and/or glycogen accumulation: correlated with histopathological evidence of vacuolation and/or glyocgen accumulation
liver; [3]
  Bile Duct Hyperplasia and Fibroplasia: 0
  Inflammation: 0
  Vacuolation: 4 and 3 (2×)
liver; low-dose (carbon tetrachloride: all doses)
  Fibrosis histopathology: without fibrosis
liver; oral gavage five days, across doses
  Vacuolation: dose-dependent increase in vacuolation indicative of lipid accumulation without evidence of fibrosis
[1]; [2]
  A2m differential expression: −3.423
  Arf6 differential expression: 0.270
  Cxcl1 differential expression: 0.190
  RT1-DMa differential expression: 0.225
[1]; [4]
  Differential Expression of A2m: −2.891 and −2.439 and −5.167
  Differential Expression of Angptl3: −0.612 and −1.071 and −0.753 and −0.775
  Differential Expression of Anxa2: 0.553 and 0.586 and 0.834 and 0.587
  Differential Expression of Apoc: −0.311 and −0.356 and −0.337 and −0.414
  Differential Expression of Arf6: 0.172 and 0.167 and 0.214
  Differential Expression of Arpc1b: 1.102 and 1.145 and 1.554 and 1.382
  Differential Expression of Arrb1: 1.846 and 2.288 and 2.226 and 1.692
  Differential Expression of C1qb: 0.268 and 0.290 and 0.085 and 0.332
  Differential Expression of CD9: −0.279 and −0.103 and 0.754 and −0.347
  Differential Expression of CD53: 0.486 and 1.094 and 1.315 and 1.262
  Differential Expression of CP: −0.227 and −0.328 and −0.317 and −0.414
  Differential Expression of Capg: 0.433 and 0.855 and 0.909 and 0.968
  Differential Expression of Ccl2: 1.671 and 1.662 and 2.378 and 1.370
  Differential Expression of Col1a1: 1.336 and 1.411 and 1.309 and 1.774
  Differential Expression of Col1a2: 0.249 and 0.458 and 0.329 and 0.672
  Differential Expression of Col4a1: −0.521 and −0.024 and −0.441 and 0.104
  Differential Expression of Col5a2: 1.411 and 2.330 and 2.442 and 2.138
  Differential Expression of Ctgf: 2.135 and 2.232 and 2.664 and 1.663
  Differential Expression of Cxcl1: −0.500 and −0.165 and −0.462
  Differential Expression of Cxcl12: 0.040 and 0.320 and 0.041 and 0.403
  Differential Expression of Cxcl16: 1.440 and 1.782 and 1.992 and 1.656
  Differential Expression of Cyba: 0.522 and 0.799 and 0.888 and 0.887
  Differential Expression of Cyp2c11: −1.357 and −3.301 and −0.339 and −0.904
  Differential Expression of Dsc2: 0.091 and −0.280 and −0.204 and −0.265
  Differential Expression of Fam102b: −0.378 and −0.140 and −0.011 and −0.240
  Differential Expression of Fam105a: 0.309 and 0.576 and 0.985 and 0.758
  Differential Expression of Fbn1: −0.149 and 0.230 and −0.294 and 0.107
  Differential Expression of Fn1: −0.120 and −0.152 and −0.364 and −0.262
  Differential Expression of Fstl1: −0.259 and 0.017 and −0.180 and 0.025
  Differential Expression of Fxyd5: 0.160 and 0.404 and 0.507 and 0.213
  Differential Expression of Gpnmb: 1.494 and 2.232 and 3.101 and 2.714
  Differential Expression of Igfals: −0.528 and −0.092 and −0.771 and −0.189
  Differential Expression of Igfbp1: 0.019 and 0.070 and 0.480 and −0.925
  Differential Expression of Igfbp2: −0.542 and 1.416 and 0.505 and −1.839
  Differential Expression of Igfbp3: −0.324 and 0.063 and −0.304 and −0.113
  Differential Expression of Itga1: 0.220 and 0.585 and 0.503 and 0.756
  Differential Expression of Itgb2: −0.115 and 0.502 and 0.455 and 0.302
  Differential Expression of Lame2: 2.323 and 2.130 and 2.338 and 1.341
  Differential Expression of Lbp: 0.594 and 0.379 and 0.665 and 0.050
  Differential Expression of Len2: −1.654 and 0.356 and 1.528 and 2.126
  Differential Expression of Lgals1: 0.936 and 0.978 and 1.986 and 1.602
  Differential Expression of Lgals3: 0.994 and 1.444 and 2.024 and 1.736
  Differential Expression of Lgals3bp: 0.391 and 0.486 and 0.360 and 0.302
  Differential Expression of Lox: −0.215 and −0.493 and 0.022 and 0.077
  Differential Expression of Lrp1: −0.329 and −0.337 and −0.524 and −0.671
  Differential Expression of Lum: 0.298 and −0.201 and 0.404 and 0.442
  Differential Expression of Mmp2: −0.062 and 0.311 and 0.610 and −0.241
  Differential Expression of Nid1: −0.021 and 0.232 and 0.186 and 0.154
  Differential Expression of Pcolce: 0.002 and 0.354 and 0.651 and −0.401
  Differential Expression of Pkm2: 0.077 and 0.586 and 0.642 and 0.663
  Differential Expression of Plat: −0.025 and −0.411 and −0.289 and −0.385
  Differential Expression of Plau: 0.039 and 0.765 and 0.947 and 0.720
  Differential Expression of Plod2: −0.129 and −0.357 and −0.045 and −0.258
  Differential Expression of RT1-DMa: 0.711 and 0.673 and 1.089
  Differential Expression of RT1-Da: 0.559 and 0.918 and 1.213 and 1.280
  Differential Expression of S100A6: −0.079 and −0.686 and 0.408 and −0.019
  Differential Expression of S100A11: 0.119 and 0.421 and 0.731 and 0.599
  Differential Expression of Serpine1: 0.309 and −0.345 and 0.467 and −0.524
  Differential Expression of Serping1: −0.712 and −0.714 and −0.546 and −0.514
  Differential Expression of Slc25a24: −0.245 and −0.511 and −0.262 and −0.615
  Differential Expression of Sod2: 0.022 and 0.009 and −0.014 and −0.116
  Differential Expression of TagIn2: 0.218 and 0.282 and 0.110 and 0.153
  Differential Expression of Tgfb1: −0.322 and 0.107 and −0.102 and −0.395
  Differential Expression of Timp1: 0.939 and 1.200 and 1.645 and 1.241
  Differential Expression of Vhl: 2.369 and 2.626 and 2.628 and 2.130
  Differential Expression of Vim: 0.044 and 0.004 and 0.348 and 0.360
  Differential Expression of Vtn: −0.291 and −0.381 and −0.494 and −0.473
[1]; liver, 67-gene panel
  Panel gene expression relative to other chemical-dose groups: mid-way between fibrosis-positive chemical-dose groups and non-fibrogenic chemical-dose groups
[1]; liver, 67 genes
  Hierarchical biclustering of log2 fold-changes in panel gene expression: clustered mid-way between non-fibrogenic and fibrogenic doses of the other fibrogenic chemicals
